Assay results from patent US11319324B2, “Pyrazolo-pyrrolo-pyrimidine-dione derivatives as P2X3 inhibitors” (Bayer Aktiengesellschaft, priority 2017, dated 2022).

Assays:
Type in all cases: cell-based
human P2X3 receptor [1] = biological target: T1, human P2X3 receptor (Homo sapiens, UniProt P56373); assay: Intracellular calcium measurement, antagonist activity at human P2X3 receptors (hP2X3 1321N1), Fluo8; set-up: expressed in transfected cells; host or cells: human astrocytoma 1321N1 (1312N1 [sic]); settings: column 3); 1321N1 cells, human P2X3, Fluo8, agonist ATP at EC50
T1 sequence (P56373 1-397): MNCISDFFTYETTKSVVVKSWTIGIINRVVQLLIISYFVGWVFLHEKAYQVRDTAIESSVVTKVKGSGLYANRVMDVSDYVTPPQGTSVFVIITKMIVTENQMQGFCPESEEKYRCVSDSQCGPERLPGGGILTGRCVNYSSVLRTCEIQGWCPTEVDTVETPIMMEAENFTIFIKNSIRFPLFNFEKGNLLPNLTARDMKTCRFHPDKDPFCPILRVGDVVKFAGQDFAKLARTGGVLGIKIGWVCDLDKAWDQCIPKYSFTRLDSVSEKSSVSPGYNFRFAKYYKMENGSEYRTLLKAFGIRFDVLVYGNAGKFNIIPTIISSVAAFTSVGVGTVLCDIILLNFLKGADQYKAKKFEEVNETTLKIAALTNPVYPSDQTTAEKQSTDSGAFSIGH
In short: (§1)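 Antagonism was assessed by decrease of the Fluo8 calcium signal after ATP challenge, with ATP dosed at the EC50 of whichever receptor was tested. Stable 1321N1 astrocytoma lines expressed either human P2X3 or both P2X2 and P2X3, and were dye-loaded 60 min before a 10 min compound incubation.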

human P2X3 receptor [2] = biological target: T1, human P2X3 receptor; assay: Intracellular calcium measurement to assess antagonist activity at human P2X3 receptors (hP2X3 CHO), photina luminescence; set-up: expressed in transfected cells; host or cells: Chinese hamster ovary (CHO) cells; settings: column 2), CHO cells, agonist α,β-methylene-ATP at EC50
In short: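 Antagonism read as lowered photina luminescence after agonist stimulation in recombinant hP2X3/photina CHO cells. Cells seeded one day earlier (30 °C) and reconstituted with 5 μg/ml coelenterazine in 2 mM Ca-tyrode buffer for 3 h at 37 °C before measurement.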

human P2X2/3 receptors = biological target: T2, human P2X2/3 receptors (Homo sapiens, UniProt P56373+Q9UBL9); assay: Intracellular calcium measurement, antagonist activity at human P2X2/3 receptors (hP2X23 1321N1), Fluo8; settings: for IC50: column 4); 1321N1 cells, human P2X2/3, Fluo8, agonist ATP at EC50; read-out: 4) hP2X2/3 IC50 [nM] (1321N1); for hP2X23/hP2X3* Selectivity (1321N1): ratio of column 4) hP2X2/3 to column 3) hP2X3, 1321N1
T2 construct: expressed in transfected cells; host or cells: human astrocytoma 1321N1 (1312N1 [sic])
T2 sequence (P56373 1-397): T1 sequence (P56373 1-397)
T2 sequence (Q9UBL9 1-471): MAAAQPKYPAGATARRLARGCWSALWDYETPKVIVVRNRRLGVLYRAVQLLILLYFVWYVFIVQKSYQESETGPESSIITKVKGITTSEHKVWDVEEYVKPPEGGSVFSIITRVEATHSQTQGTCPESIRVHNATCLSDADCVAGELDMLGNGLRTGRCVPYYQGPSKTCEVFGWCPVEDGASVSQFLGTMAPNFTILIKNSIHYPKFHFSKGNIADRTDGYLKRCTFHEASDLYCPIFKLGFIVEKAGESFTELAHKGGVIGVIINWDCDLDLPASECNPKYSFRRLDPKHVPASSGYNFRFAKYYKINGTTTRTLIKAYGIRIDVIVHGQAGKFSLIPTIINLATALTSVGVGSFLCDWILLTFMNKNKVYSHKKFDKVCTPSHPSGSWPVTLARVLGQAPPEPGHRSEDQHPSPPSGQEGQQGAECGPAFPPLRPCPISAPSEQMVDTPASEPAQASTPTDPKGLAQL
In short: as §1

SMILES | IC50 (human P2X3 receptor [1]) [nM] | IC50 (human P2X3 receptor [2]) [nM] | IC50 (human P2X2/3 receptors) [nM] | hP2X23/hP2X3* Selectivity (1321N1) (human P2X2/3 receptors)
O=C(Cn1c2c(c(=O)n3nc(Cl)cc13)CN(CCN1CCOCC1)C2=O)Nc1ccc(F)cn1 [Example 105] | 92 | 78 | > 32000 | >348
CCc1cc2n(CC(=O)Nc3ccc(F)cn3)c3c(c(=O)n2n1)CN(CC1CCCN1)C3=O.Cl (stereo not drawn) [Example 239] | 650 | 220 | > 32000 | >49
CCc1cc2n(CC(=O)Nc3ccc(F)cn3)c3c(c(=O)n2n1)CN(C1CCN(C(=O)OC(C)(C)C)C1)C3=O (stereo not drawn) [Example 78] | 62 | 21 | 6100 | 98
COC[C@H](C)N1Cc2c(n(CC(=O)Nc3ccc(F)cn3)c3cc(C(=O)N4CCC4)nn3c2=O)C1=O [Example 194] | 9 | 18 | 3200 | 368
CCc1cc2n(CC(=O)Nc3ccc(F)cn3)c3c(c(=O)n2n1)CN(CC1CCCN1C(=O)OC(C)(C)C)C3=O (stereo not drawn) [Example 81] | 42 | 103 | 2600 | 61
CCc1cc2n(CC(=O)Nc3ccc(F)cn3)c3c(c(=O)n2n1)CN(CCN1CCOCC1)C3=O [Example 95] | 273 | 178 | > 22500 | >82
CC(C)N1Cc2c(n(CC(=O)Nc3ccc(F)cn3)c3cc(C4CCCCC4)nn3c2=O)C1=O [Example 85] | 6 | 4 | 1950 | 328
COCCN1Cc2c(n(CC(=O)Nc3ccc(F)cn3)c3cc(C4CC4)nn3c2=O)C1=O [Example 100] | 20 | 52 | 4850 | 243
COC[C@H](C)N1Cc2c(n(CC(=O)Nc3ccc(F)cn3)c3cc(-c4ccnc(C)c4)nn3c2=O)C1=O [Example 153] | 6 | 10 | 2350 | 408
COC[C@H](C)N1Cc2c(n(CC(=O)Nc3ccc(F)cn3)c3cc(-c4ccc(C)nc4)nn3c2=O)C1=O [Example 151, N-(5-fluoropyridin-2-yl)-2-{6-[(2S)-1-methoxypropan-2-yl]-2-(6-methylpyridin-3-yl)-5,8-dioxo-5,6,7,8-tetrahydro-4H-pyrazolo[1,5-a]pyrrolo[3,4-d]pyrimidin-4-yl}acetamide] | 5 | 6 | 580 | 106
COC[C@H](C)N1Cc2c(n(CC(=O)Nc3ccc(F)cn3)c3cc(NC4CCCC4)nn3c2=O)C1=O [Example 178] | 2 | 14 | 2200 | 917
CC(C)N1Cc2c(n(CC(=O)Nc3ccc(F)cn3)c3cc(N(C)C)nn3c2=O)C1=O [Example 172] | 42 | 35 | 6350 | 150
CC(C)N1Cc2c(n(CC(=O)Nc3ccc(F)cn3)c3cc(C(=O)Nc4ccccc4F)nn3c2=O)C1=O [Example 200] | 38 | 44 | 3950 | 105
CCc1cc2n(CC(=O)Nc3ccc(F)cn3)c3c(c(=O)n2n1)CN(C[C@@H]1COCCN1CCC(F)(F)F)C3=O [Example 261] | 39 | 41 | 5550 | 142
CC(C)N1Cc2c(n(CC(=O)Nc3ccc(F)cn3)c3cc(CC4CCOCC4)nn3c2=O)C1=O [Example 96] | 26 | 20 | 8800 | 345
